# Results reported in patent publication US5430045A, “Method of reducing or preventing bone marrow hypoplasia” (Free Radical Sciences, Inc., priority 1993, dated 1995).
# Values joined by “and” are separate entries in the source; they are usually repeats but may differ in a detail not shown here. Equal values may be shown once.
# Assays:
# [1] = tested on: bone marrow; assay: Nucleated cells/femur and colony forming cells, Example 2; assay type: in vivo, mice
# Protocol: Bone marrow colony-forming cells were evaluated. During necropsy, one femur per mouse was cut at the distal and proximal ends. Using a syringe and 25 G needle, 5 ml of Iscove's Modified Dulbecco's Media (IMDM) was flushed through the femur into a collection tube (2.5 ml flushed into one end, then 2.5 ml into the other end). The tube was washed using IMDM containing 20% fetal bovine serum and the cell concentration was adjusted to the desired count for the colony assay. In triplicate, the marrow cells were put into a mixture of methylcellulose, stem cell factor, interleukin-3, granulocyte macrophage--colony stimulating factor, and erythropoietin, and plated into 35 mm diameter dishes. The dishes were incubated 10 days (37° C., 5% CO2, 100% relative humidity) then manually scored under a light microscope for myeloid (white), erythroid (red), and mixed colonies.
# (§1) Statistical analysis of bone marrow data included an analysis of the results from bone marrow smears (differential count and M:E ratio), analysis of the histopathologic characterization data for bone marrow cellularity, analysis of the bone marrow cellularity on the day of necropsy, analysis of the results of the hematopoietic colony forming assays (based on 10^4 mononuclear bone marrow (cells/dish), and analysis of the number of colony forming units represented per femur (cellularity data multiplied by colony forming data).
# [2] = GSH concentrations in blood, liver and kidney by HPLC, Example 2; assay type: in vivo, mice
# [3] = tested on: bone marrow; assay: Bone marrow smear differential and M:E ratio, Example 2; assay type: in vivo, mice
# Protocol: (§2) One femur from each mouse was removed and transversely halved. One half was preserved in 10% neutral buffered formalin, then submitted to a histology department for further preparation. The other half of the femur was used to prepare bone marrow smears. […] Prepared slides for bone sections and bone marrow smears were stained (Diff-Quik®) and the smears and sections were evaluated microscopically.
# (§3) The difference between the means for groups 3 and 5 and the difference between the means for groups 4 and 6 were compared to the control delta. The significance of the two individual comparisons is designated in the summary statistics listing. Pairwise comparisons of the mean response for group 2 to group 1, group 3 to group 1, group 4 to group 1, group 5 to group 2, and group 6 to group 2 were also performed. The significance of these five comparisons was designated in the summary statistics listing. In total, the significance of seven statistical comparisons (two on the mean differences and five on the mean responses) are indicated in the summary statistics listing.
# as §1
# [4] = tested on: bone marrow; assay: Nucleated cells per femur (bone marrow cells before plating), Example 1; assay type: in vivo, mice; conditions: for Nucleated Cells/Femur: M,F,combined in turn
# Protocol: (§4) Populations of bone marrow colony forming cells were evaluated. Bone marrow was collected and the stem cell assay conducted, as follows: one femur per mouse was cut at the distal and proximal ends. Using a syringe and 25 gauge needle, 5 mL of IMDM media was flushed through the femur into a collection tube (2.5 mL flushed into one end, then 2.5 ml into the other end). The tube was washed using Iscove's Modified Dulbecco's Media containing 20% fetal bovine serum and the cell concentration was adjusted to the desired count for the colony assay.
# (§5) Terminal blood was evaluated for hematological effects, and bone marrow smears and aspirates were counted and 10^4 nucleated cells of the aspirate were cultured 14 days to assess hematopoietic progenitor cells.
# [5] = tested on: peripheral blood; set-up: species or system mice; conditions: mouse, in vivo
# Protocol: On study day 17, the animals were anesthetized with methoxyflurane (in a bell jar). When deeply anesthetized, blood was obtained by cardiac puncture and transferred for hematological analysis into tubes containing an EDTA suspension.
# The following hematologic assays were conducted.
# Statistical tests were performed at the α level of 0.01. Listing of the individual data and summary statistics (mean, standard error and sample size) was provided. The average body weight changes from study day 3 for study days 4-10 and 11-17 and average food consumption for study days 4-10 and 11-17 was analyzed.
# [6] = tested on: bone marrow colony forming cells; assay: Hematopoietic progenitor colony forming assay of bone marrow, Example 1; set-up: species or system mice; conditions: mouse, in vivo
# Protocol: as §4
# In triplicate, the marrow cells were put into a mixture of methylcellulose and plated into 35 mm diameter dishes. The dishes were incubated approximately 2 weeks (37° C., 5% CO2, 100% relative humidity) then manually scored under a microscope for myeloid, erythroid, and mixed colonies.
# as §5
# [7] = tested on: bone marrow; assay: Bone marrow smear differential, cells/femur and myeloid:erythroid ratio, Example 1; assay type: in vivo, mice
# Protocol: Prepared slides were stained and evaluated microscopically.
# Statistical tests were performed at the α level of 0.01. Listing of the individual data and summary statistics (mean, standard error and sample size) was provided. The average body weight changes from study day 3 for study days 4-10 and 11-17 and average food consumption for study days 4-10 and 11-17 was analyzed. […] Specifically, the interaction of AZT and procysteine® was evaluated.
# Microscopic analysis of the bone marrow smears was conducted by evaluating 500 cells for the differential analysis and 500 cells for the myeloid: erythroid ratio.
# [8] = tested on: peripheral blood; set-up: species or system mice; conditions: mouse, in vivo; remark: listed apart in the source
# Protocol: An eight week evaluation of the potential for oral Procysteine® to modulate AZT-induced hematologic toxicity in mice was conducted. As noted above, AZT-related bone marrow toxicity, and resultant bone marrow hypoplasia, limits the utility of this drug.
# (§6) Animals were weighed (not fasted) on study day 59 and euthanized, and specimens were collected as described.
# On study day 59, surviving mice were deeply anesthetized with methoxyflurane in a bell jar. While the mice were deeply anesthetized, blood for hematological analysis was obtained via cardiac puncture using needles/syringes coated with K3 EDTA. While deeply anesthetized, the mice were then euthanized by exsanguination followed by cervical dislocation. Then, bone marrow smears and aspirates were prepared and liver and kidneys were collected as subsequently described in this report.
# The following hematology assays were conducted:
# Statistical tests were performed at α≈0.01. Listings of the individual data were provided. Summary statistics by sex (mean, standard error and sample size) were provided for the responses for each group and for the differences between groups 1 and 2, between groups 3 and 5 and between groups 4 and 6. The average across weekly intervals for body weight change from study day 3 was analyzed. The average across weekly intervals for food consumption starting with the interval between days 3-4 were analyzed. The model included factors for block, sex and group effects and the group by sex interaction. the interactions with block effect were assumed negligible. Data for both sexes were included in one model to get an overall estimate of the residual standard deviation used in the statistical comparisons.
# as §3
# [9] = tested on: femoral bone marrow; assay: Histopathology of femoral bone marrow sections, Example 2; assay type: in vivo, mice
# Protocol: as §6, §2
# [10] = Histopathology of adrenal, skin and tail, Example 2; set-up: species or system mice; conditions: mouse, in vivo
# [11] = AZT 50 mg/kg/day, M,F,combined in turn
# [12] = AZT 500 mg/kg/day, M,F,combined in turn
# [13] = 8 weeks, AZT 50/day, F, M in turn
# [14] = 8 weeks, AZT 500/day, F, M in turn
# [15] = 8 weeks, no AZT, F (N 9), M (N 10) in turn
compound,measurement,setting,value
Cc1cn([C@H]2C[C@H](N=[N+]=[N-])[C@@H](CO)O2)c(=O)[nH]c1=O [AZT],total number of colonies,[1]; both high dose AZT groups,significant increases
same,Nucleated Cells/Femur,"[1]; males and females, high dose AZT ± Procysteine, vs controls",significantly decreased
same,Blood GSH,"[2]; mouse, in vivo",significantly decreased with increasing AZT dose
same,erythroid cells in bone marrow smears,[3]; male and female,significant reduction
same,metarubricytes (nonproliferating) and rubriblasts,[3]; male and female,significantly reduced
same,total proliferating myeloid and total myeloid cells,[3]; male and female,significantly increased
same,Nucleated Cells/Femur,[4]; AZT 50 mg/kg/day,11.7 ×10**6 and 9.9 ×10**6 and 10.8 ×10**6
same,Nucleated Cells/Femur,[4]; AZT 500 mg/kg/day,10.5 ×10**6 and 8.8 ×10**6 and 9.6 ×10**6
same,nucleated cells of bone marrow aspirates,"[4]; AZT and high-dose AZT/Procysteine, vs controls",significant reduction
same,"mean corpuscular volume, mean corpuscular hemoglobin, incidence of polychromasia, anisocytosis, macrocytes and Howell-Jolly bodies",[5],increases
same,"total hemoglobin concentration, hematocrit and erythrocyte counts",[5],significant (p<0.01) decreases
same,total colonies and colony forming units-granulocyte/macrophage,[6],significant induction
same,Bone Marrow-Miscellaneous Cells %,[7]; [11],0.4% and 0.5%
same,Lymphocyte,[7]; [11],0.047 /Femur × 10**6 and 0.046 /Femur × 10**6
same,Bone Marrow-Miscellaneous Cells %,[7]; [12],0.2%
same,Lymphocyte,[7]; [12],0.022 /Femur × 10**6 and 0.015 /Femur × 10**6 and 0.019 /Femur × 10**6
same,metarubricytes (nonproliferating),[7]; bone marrow smears,marked reduction
same,rubriblasts,[7]; bone marrow smears,mild reduction
same,total count of erythroid series cells,[7]; bone marrow smears,reduced total count
same,nonproliferating compartment of the myeloid series,"[7]; mouse, in vivo",reduction
same,proliferating compartment of the myeloid series,"[7]; mouse, in vivo",significantly increased
same,HCT,[8],significant decrease
same,MCV and MCH,[8],Significant increases
same,RBC and HGB,[8],Significant decreases
same,platelets,[8],significant increases
same,Bizarre Mitotic Figures (number of mice),[9]; [13],0
same,Erythroid Hypoplasia (number of mice),[9]; [13],10 and 6
same,General Hypoplasia (number of mice),[9]; [13],1
same,Hemosiderin (number of mice),[9]; [13],0
same,Erythroid Hypoplasia (number of mice),[9]; [14],9 and 8
same,Hemosiderin (number of mice),[9]; [14],4 and 2
same,erythroid or general bone-marrow-hypoplasia,"[9]; both doses, both sexes",36/39
same,erythroid hypoplasia,[9]; female mice,19/20
same,erythroid hypoplasia,[9]; male mice,14/19
same,epidermal melanin-like pigment of tail,[10],accumulation of epidermal melanin-like pigment
O=C1N[C@H](C(=O)O)CS1 [Procysteine],blood GSH concentrations vs AZT-only treated groups,"[2]; at 0, 50, and 500 mg/kg/day AZT",higher
same,erythroid series cells,[3]; female mice,only a mild decrease
same,myeloid series cells,[3]; female mice,no meaningful alterations
same,bone marrow status,[3]; male mice,normal bone marrows
same,Nucleated Cells/Femur,[4]; no AZT,12.8 ×10**6 and 12.0 ×10**6 and 12.4 ×10**6
same,Bone Marrow-Miscellaneous Cells %,"[7]; no AZT, M,F,combined in turn",1.0% and 1.2% and 1.1%
same,Lymphocyte,"[7]; no AZT, M,F,combined in turn",0.130 /Femur × 10**6 and 0.141 /Femur × 10**6 and 0.135 /Femur × 10**6
same,Myeloid:Erythroid Ratio,"[7]; no AZT, M,F,combined in turn",1.59 and 1.58
same,HCT,[8],39.6%
same,MCV,[8],51 fL
same,Retic,[8],1.4%
same,WBC,[8],2.1 10^3 /μl
same,Bizarre Mitotic Figures (number of mice),[9]; [15],0
same,Erythroid Hypoplasia (number of mice),[9]; [15],0
same,General Hypoplasia (number of mice),[9]; [15],0
same,Hemosiderin (number of mice),[9]; [15],0
same,Normal bone marrow (number of mice),[9]; [15],9 and 10
same,AZT-induced bone marrow pathology / hypoplasia,[9]; eight weeks of cotreatment,significantly ameliorated
